Measured values as given in article PMC11240139, “Exploring the antitumor potential of novel quinoline derivatives via tubulin polymerization inhibition in breast cancer; design, synthesis and molecular docking” (RSC Advances, 2024).

Assays:
[1] = test system: HT29 (colon cancer); assay: NCI-60 SRB cytotoxicity screen; type: cell-based
[2] = test system: KM12 (colon cancer); assay: NCI-60 SRB cytotoxicity screen; type: cell-based
[3] = test system: UO-31 (renal cancer); assay: NCI-60 SRB cytotoxicity screen; type: cell-based
[4] = test system: IGROV1 (ovarian cancer); assay: NCI-60 SRB cytotoxicity screen; type: cell-based
[5] = test system: NCI-H23 (non-small cell lung cancer); assay: NCI-60 SRB cytotoxicity screen; type: cell-based
[6] = test system: A498 (renal cancer); assay: NCI-60 SRB cytotoxicity screen; type: cell-based
[7] = test system: SR (leukemia); assay: NCI-60 SRB cytotoxicity screen; type: cell-based
[8] = test system: EKVX (non-small cell lung cancer); assay: NCI-60 SRB cytotoxicity screen; type: cell-based
[9] = test system: TK-10 (renal cancer); assay: NCI-60 SRB cytotoxicity screen; type: cell-based
[10] = test system: NCI-H322M (non-small cell lung cancer); assay: NCI-60 SRB cytotoxicity screen; type: cell-based
[11] = test system: UACC-257 (melanoma); assay: NCI-60 SRB cytotoxicity screen; type: cell-based
[12] = test system: SK-MEL-28 (melanoma); assay: NCI-60 SRB cytotoxicity screen; type: cell-based
[13] = test system: MCF7 (breast cancer); assay: NCI-60 SRB cytotoxicity screen; type: cell-based
[14] = test system: CAKI-1 (renal cancer); assay: NCI-60 SRB cytotoxicity screen; type: cell-based
[15] = test system: NCI-H460 (non-small cell lung cancer); assay: NCI-60 SRB cytotoxicity screen; type: cell-based
[16] = test system: MDA-MB-468 (breast cancer); assay: NCI-60 SRB cytotoxicity screen; type: cell-based
Procedure, shortened: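 NCI-60 single-dose (10^−5 M) screen in MDA-MB-468 with SRB protein-stain read-out after 48 h exposure; cells TCA-fixed and absorbance read at 540 nm. Reported as GI%, with compounds meeting NCI activity criteria then run at five doses (0.01–100 μM).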

[17] = target: T1, tubulin (Sus scrofa, UniProt P02550+P02554); assay: Tubulin polymerization inhibition assay; type: biochemical
T1 construct: purchased Cytoskeleton, USA
T1 sequence (P02554 whole entry): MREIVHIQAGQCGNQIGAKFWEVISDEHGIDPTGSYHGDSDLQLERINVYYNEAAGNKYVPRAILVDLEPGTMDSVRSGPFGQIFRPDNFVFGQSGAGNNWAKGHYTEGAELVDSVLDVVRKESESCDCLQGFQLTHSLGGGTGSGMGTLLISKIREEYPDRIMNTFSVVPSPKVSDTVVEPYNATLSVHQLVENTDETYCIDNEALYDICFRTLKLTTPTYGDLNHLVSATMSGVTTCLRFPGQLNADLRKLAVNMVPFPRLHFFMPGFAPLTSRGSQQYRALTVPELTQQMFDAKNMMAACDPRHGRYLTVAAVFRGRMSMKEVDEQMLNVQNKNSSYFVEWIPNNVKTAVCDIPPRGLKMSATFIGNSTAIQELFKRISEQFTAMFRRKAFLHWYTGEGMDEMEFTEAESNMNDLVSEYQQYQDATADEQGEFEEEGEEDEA
T1 sequence (P02550 whole entry): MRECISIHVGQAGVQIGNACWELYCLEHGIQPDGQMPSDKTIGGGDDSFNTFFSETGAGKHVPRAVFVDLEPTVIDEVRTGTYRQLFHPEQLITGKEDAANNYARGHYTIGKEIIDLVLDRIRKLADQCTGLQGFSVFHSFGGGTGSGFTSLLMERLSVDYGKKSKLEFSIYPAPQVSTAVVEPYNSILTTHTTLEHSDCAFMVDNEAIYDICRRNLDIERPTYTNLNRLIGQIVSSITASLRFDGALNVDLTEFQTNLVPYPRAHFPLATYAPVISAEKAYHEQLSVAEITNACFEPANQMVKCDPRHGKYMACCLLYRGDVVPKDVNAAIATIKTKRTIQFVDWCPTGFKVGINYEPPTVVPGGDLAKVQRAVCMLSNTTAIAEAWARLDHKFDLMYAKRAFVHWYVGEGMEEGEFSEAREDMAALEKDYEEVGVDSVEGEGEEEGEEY
Method: Tubulin polymerization inhibition assay was performed using Tubulin Polymerization Assay Kit (Cytoskeleton, USA). 2 mg mL^−1 tubulin was dissolved in 80 mM PIPES pH 6.9, 2.0 mM MgCl2, 0.5 mM EGTA, 1.0 mM GTP and 15% glycerol. A 96-well plate was warmed to 37 °C for 10 minutes. Serial dilutions of the test compounds were prepared. The assay components were mixed. Polymerization was monitored using a plate reader at 360 nm and emission at 420 nm at 37 °C every 1 min intervals for 60 min. A dose–response curve was generated and the IC50 for tubulin polymerization inhibition was calculated.

[18] = test system: SK-OV-3 (ovarian cancer); assay: NCI-60 SRB cytotoxicity screen; type: cell-based
[19] = test system: SF-539 (CNS cancer); assay: NCI-60 SRB cytotoxicity screen; type: cell-based
[20] = test system: HCT-116 (colon cancer); assay: NCI-60 SRB cytotoxicity screen; type: cell-based
[21] = test system: OVCAR-4 (ovarian cancer); assay: NCI-60 SRB cytotoxicity screen; type: cell-based
[22] = test system: PC-3 (prostate cancer); assay: NCI-60 SRB cytotoxicity screen; type: cell-based
[23] = test system: T-47D (breast cancer); assay: NCI-60 SRB cytotoxicity screen; type: cell-based
[24] = test system: HCT-15 (colon cancer); assay: NCI-60 SRB cytotoxicity screen; type: cell-based
[25] = test system: DU-145 (prostate cancer); assay: NCI-60 SRB cytotoxicity screen; type: cell-based
[26] = test system: HL-60(TB) (leukemia); assay: NCI-60 SRB cytotoxicity screen; type: cell-based
[27] = test system: UACC-62 (melanoma); assay: NCI-60 SRB cytotoxicity screen; type: cell-based
[28] = Homo sapiens, UO-31, five-dose assay
[29] = Homo sapiens, NCI-H23, five-dose assay
[30] = Homo sapiens, A498, five-dose assay
[31] = Homo sapiens, single dose 10 μM, read-out: growth inhibition (GI%)
[32] = Homo sapiens, UACC-257, five-dose assay
[33] = Homo sapiens, SK-MEL-28, five-dose assay
[34] = Homo sapiens, NCI-H460, five-dose assay
[35] = Homo sapiens, MDA-MB-468, five-dose assay
[36] = Homo sapiens, SF-539, five-dose assay
[37] = Homo sapiens, HCT-116, five-dose assay
[38] = Homo sapiens, HCT-15, five-dose assay

CCc1cccc2cc(-c3cc(-c4cc(OC)c(OC)c(OC)c4)[nH]c(=O)c3C#N)c(Cl)nc12 [Compound 4c, 4-(2-Chloro-8-ethylquinolin-3-yl)-2-oxo-6-(3,4,5-trimethoxyphenyl)-1,2-dihydropyridine-3-carbonitrile]
TGI ([1]; HT29, five-dose assay): >100 µM | GI50 ([1]; Homo sapiens, HT-29, HT29, five-dose assay): 32.1 µM | CC50 ([1]; Homo sapiens, HT-29, HT29, five-dose assay, read-out: LC50 (the source's name)): > 100 µM | inhibition at 10 µM ([1]; Homo sapiens, HT-29, HT29, single dose 10 μM, read-out: growth inhibition (GI%)): < 10% | GI50 ([2]; Homo sapiens, KM12, five-dose assay): 33.6 µM | CC50 ([2]; Homo sapiens, KM12, five-dose assay, read-out: LC50 (the source's name)): > 100 µM | inhibition at 10 µM ([2]; Homo sapiens, KM12, single dose 10 μM, read-out: growth inhibition (GI%)): 55.1% | TGI ([2]; KM12, five-dose assay): >100 µM | GI50 [3, 28]: 12.6 µM | LC50 (50% lethal concentration) [3, 28]: > 100 µM | inhibition at 10 µM ([3]; Homo sapiens, UO-31, single dose 10 μM, read-out: growth inhibition (GI%)): > 100% | TGI ([3]; UO-31, five-dose assay): >100 µM | growth inhibition (GI%) ([3]; UO-31, single dose 10 μM): lethal effect | GI50 ([4]; Homo sapiens, IGROV-1, IGROV1, five-dose assay): 12.2 µM | CC50 ([4]; Homo sapiens, IGROV-1, IGROV1, five-dose assay, read-out: LC50 (the source's name)): > 100 µM | inhibition at 10 µM ([4]; Homo sapiens, IGROV-1, IGROV1, single dose 10 μM, read-out: growth inhibition (GI%)): 66.3% | TGI ([4]; IGROV1, five-dose assay): 46.30 µM | GI50 [5, 29]: 3.2 µM | LC50 (concentration killing 50% of cells) [5, 29]: > 100 µM | inhibition at 10 µM ([5]; Homo sapiens, NCI-H23, single dose 10 μM, read-out: growth inhibition (GI%)): 68.6% | TGI ([5]; NCI-H23, five-dose assay): >100 µM | TGI ([6]; A498, five-dose assay): 45.20 µM | growth inhibition (GI%) ([6]; A498, single dose 10 μM): lethal effect | GI50 [6, 30]: 15.8 µM | LC50 (concentration killing 50% of cells) [6, 30]: > 100 µM | inhibition at 10 µM ([6]; Homo sapiens, A498, single dose 10 μM, read-out: growth inhibition (GI%)): > 100% | GI50 ([7]; five-dose assay): 5.7 µM | LC50 ([7]; five-dose assay): > 100 µM | TGI ([7]; five-dose assay): >100 µM | inhibition at 10 µM ([7]; single dose 10 μM, read-out: growth inhibition (GI%)): 77.3% | GI50 ([8]; Homo sapiens, five-dose assay): 28.6 µM | CC50 ([8]; Homo sapiens, five-dose assay, read-out: LC50 (the source's name)): > 100 µM | inhibition at 10 µM [8, 31]: 50.1% | TGI ([8]; five-dose assay): >100 µM | GI50 ([9]; Homo sapiens, TK-10, five-dose assay): 17.5 µM | CC50 ([9]; Homo sapiens, TK-10, five-dose assay, read-out: LC50 (the source's name)): > 100 µM | inhibition at 10 µM ([9]; Homo sapiens, TK-10, single dose 10 μM, read-out: growth inhibition (GI%)): > 100% | TGI ([9]; TK-10, five-dose assay): 34.50 µM | growth inhibition (GI%) ([9]; TK-10, single dose 10 μM): lethal effect | GI50 ([10]; Homo sapiens, five-dose assay): 10.5 µM | LC50 (concentration causing 50% net cell kill) ([10]; Homo sapiens, five-dose assay): > 100 µM | inhibition at 10 µM [10, 31]: 53.7% | TGI ([10]; five-dose assay): >100 µM | GI50 [11, 32]: 42.6 µM | LC50 [11, 32]: > 100 µM | inhibition at 10 µM ([11]; Homo sapiens, UACC-257, single dose 10 μM, read-out: growth inhibition (GI%)): 26.5% | TGI ([11]; UACC-257, five-dose assay): >100 µM | GI50 [12, 33]: 21.1 µM | LC50 (concentration causing 50% net cell kill) [12, 33]: > 100 µM | inhibition at 10 µM ([12]; Homo sapiens, SK-MEL-28, single dose 10 μM, read-out: growth inhibition (GI%)): 68.9% | TGI ([12]; SK-MEL-28, five-dose assay): >100 µM | GI50 ([13]; Homo sapiens, MCF7, five-dose assay): 24 µM | CC50 ([13]; Homo sapiens, MCF7, five-dose assay, read-out: LC50 (the source's name)): > 100 µM | inhibition at 10 µM ([13]; Homo sapiens, MCF7, single dose 10 μM, read-out: growth inhibition (GI%)): 54.8% | TGI ([13]; MCF7, five-dose assay): >100 µM | TGI ([14]; CAKI-1, five-dose assay): 22.90 µM | GI50 ([14]; Homo sapiens, CAKI-1, five-dose assay): 10.7 µM | CC50 ([14]; Homo sapiens, CAKI-1, five-dose assay, read-out: LC50 (the source's name)): 49.2 µM | inhibition at 10 µM ([14]; Homo sapiens, CAKI-1, single dose 10 μM, read-out: growth inhibition (GI%)): 95.1% | GI50 [15, 34]: 16.1 µM | LC50 (50% lethal concentration) [15, 34]: > 100 µM | inhibition at 10 µM ([15]; Homo sapiens, NCI-H460, single dose 10 μM, read-out: growth inhibition (GI%)): 58.6% | TGI ([15]; NCI-H460, five-dose assay): 41.80 µM | GI50 [16, 35]: 12.7 µM | LC50 (concentration killing 50% of cells) [16, 35]: > 100 µM | inhibition at 10 µM ([16]; Homo sapiens, MDA-MB-468, single dose 10 μM, read-out: growth inhibition (GI%)): 51.9% | TGI ([16]; MDA-MB-468, five-dose assay): 61.60 µM | IC50 [17]: 17 ± 0.3 µM | GI50 ([18]; Homo sapiens, SK-OV-3, five-dose assay): 26 µM | CC50 ([18]; Homo sapiens, SK-OV-3, five-dose assay, read-out: LC50 (the source's name)): > 100 µM | inhibition at 10 µM ([18]; Homo sapiens, SK-OV-3, single dose 10 μM, read-out: growth inhibition (GI%)): 61.4% | TGI ([18]; SK-OV-3, five-dose assay): >100 µM | GI50 [19, 36]: 12 µM | LC50 (50% lethal concentration) [19, 36]: 51.3 µM | inhibition at 10 µM ([19]; Homo sapiens, SF-539, single dose 10 μM, read-out: growth inhibition (GI%)): > 100% | TGI ([19]; SF-539, five-dose assay): 24.80 µM | growth inhibition (GI%) ([19]; SF-539, single dose 10 μM): lethal effect | TGI ([20]; HCT-116, five-dose assay): 33.30 µM | GI50 [20, 37]: 14.1 µM | LC50 [20, 37]: 78.4 µM | inhibition at 10 µM ([20]; Homo sapiens, HCT-116, single dose 10 μM, read-out: growth inhibition (GI%)): 69.1% | GI50 ([21]; Homo sapiens, OVCAR-4, five-dose assay): 17.2 µM | CC50 ([21]; Homo sapiens, OVCAR-4, five-dose assay, read-out: LC50 (the source's name)): > 100 µM | inhibition at 10 µM ([21]; Homo sapiens, OVCAR-4, single dose 10 μM, read-out: growth inhibition (GI%)): > 100% | TGI ([21]; OVCAR-4, five-dose assay): >100 µM | growth inhibition (GI%) ([21]; OVCAR-4, single dose 10 μM): lethal effect | GI50 ([22]; PC-3, five-dose assay): 40.3 µM | TGI ([22]; PC-3, five-dose assay): >100 µM | CC50 ([22]; PC-3, five-dose assay, read-out: LC50 (the source's name)): > 100 µM | inhibition at 10 µM ([22]; PC-3, single dose 10 μM, read-out: growth inhibition (GI%)): 67.6% | GI50 ([23]; Homo sapiens, T47D, five-dose assay): 12.2 µM | CC50 ([23]; Homo sapiens, T47D, five-dose assay, read-out: LC50 (the source's name)): > 100 µM | inhibition at 10 µM ([23]; Homo sapiens, T47D, single dose 10 μM, read-out: growth inhibition (GI%)): 91.6% | TGI ([23]; five-dose assay): 64.10 µM | TGI ([24]; HCT-15, five-dose assay): >100 µM | GI50 [24, 38]: 27.6 µM | LC50 (concentration causing 50% net cell kill) [24, 38]: > 100 µM | inhibition at 10 µM ([24]; Homo sapiens, HCT-15, single dose 10 μM, read-out: growth inhibition (GI%)): 35.8% | TGI ([25]; DU-145, five-dose assay): 38.00 µM | GI50 ([25]; Homo sapiens, DU-145, five-dose assay): 15.5 µM | CC50 ([25]; Homo sapiens, DU-145, five-dose assay, read-out: LC50 (the source's name)): 93.5 µM | inhibition at 10 µM ([25]; Homo sapiens, DU-145, single dose 10 μM, read-out: growth inhibition (GI%)): 80.5% | GI50 ([26]; Homo sapiens, five-dose assay): 13.4 µM | LC50 ([26]; Homo sapiens, five-dose assay): > 100 µM | inhibition at 10 µM [26, 31]: 71.3% | TGI ([26]; five-dose assay): >100 µM | GI50 ([27]; Homo sapiens, UACC-62, five-dose assay): 17.5 µM | CC50 ([27]; Homo sapiens, UACC-62, five-dose assay, read-out: LC50 (the source's name)): > 100 µM | inhibition at 10 µM ([27]; Homo sapiens, UACC-62, single dose 10 μM, read-out: growth inhibition (GI%)): > 100% | TGI ([27]; UACC-62, five-dose assay): 60.10 µM | growth inhibition (GI%) ([27]; UACC-62, single dose 10 μM): lethal effect
